Active and inactive are the calls of the source. The calls are words filed in the database; no cut-off is given here.

The values below come from ChEMBL document CHEMBL4052726, “Design, synthesis, and biological evaluation of aryl N-methoxyamide derivatives as GPR119 agonists” (Bioorg Med Chem Lett, 2017).

For test [1], the target named is T1, Glucose-dependent insulinotropic receptor (Homo sapiens) (UniProt Q8TDV5).
T1 sequence (whole entry): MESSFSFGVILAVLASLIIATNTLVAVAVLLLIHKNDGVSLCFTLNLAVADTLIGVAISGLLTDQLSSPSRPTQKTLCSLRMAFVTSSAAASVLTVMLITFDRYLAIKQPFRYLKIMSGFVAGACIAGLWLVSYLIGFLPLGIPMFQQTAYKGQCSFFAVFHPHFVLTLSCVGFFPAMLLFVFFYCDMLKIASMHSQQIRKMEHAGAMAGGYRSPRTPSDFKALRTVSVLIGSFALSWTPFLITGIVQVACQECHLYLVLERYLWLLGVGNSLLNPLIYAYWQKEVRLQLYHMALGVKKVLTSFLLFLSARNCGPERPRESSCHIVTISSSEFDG
Description: Activation of human GPR119 expressed in CHOK1 cells harboring CRE-luciferase at 1 uM after 6 hrs by luciferase reporter gene assay relative to GSK1292263. It counts as functional, cell-based.

Test [2] has as its target T2, Glucose-dependent insulinotropic receptor (Homo sapiens, UniProt Q8TDV5).
T2 sequence (Q8TDV5 whole entry): T1 sequence (whole entry)
In words: Agonist activity at human GPR119 expressed in CHOK1 cells harboring CRE-luciferase after 6 hrs by luciferase reporter gene assay. It counts as functional, cell-based.

The target in test [3] is T1, Glucose-dependent insulinotropic receptor (Homo sapiens). In words: Agonist activity at GPR119 in human NCI-H716 cells assessed as increase in forskolin-induced GLP-1 secretion by ELISA. Type of test: cell-based.
A further test concerns Mus musculus. In words: Decrease in plasma glucose AUC in C57BL/6 mouse at 30 to 50 mg/kg administered orally followed by glucose challenge after 30 mins by OGTT. It counts as functional, organism-based.

`CCc1cnc(N2CCC(N(C)c3ncnc4c(-c5ccc(C(=O)NOCc6ccccc6)cc5)csc34)CC2)nc1` had an Activity in test [1] of 41%.
With `CON(C)C(=O)c1ccc(-c2csc3c(N(C)C4CCN(C(=O)OC(C)C)CC4)ncnc23)cc1F`, in test [2], a half-maximal effect (EC50) was put at 67 nM. The Activity in test [1] was 90%.
Turning to `CON(C)C(=O)c1ccc(-c2csc3c(N(C)C4CCN(C(=O)OC(C)C)CC4)ncnc23)cc1`, the EC50 in test [2] is 156 nM. For the same compound, in test [1], the Activity is 82%.
For the compound `CON(C)C(=O)c1ccc(-c2csc3c(N(C)C4CCN(C(=O)OC(C)(C)C)CC4)ncnc23)cc1F`, the EC50 in test [2] was 53 nM. This compound came in with an Activity in test [1] of 87%.
In test [1], `CCc1cnc(N2CCC(N(C)c3ncnc4c(-c5ccc(C(=O)N(C)OC)cc5)csc34)CC2)nc1` registered an Activity of 80%.
`CCc1cnc(N2CCC(N(C)c3ncnc4c(-c5ccc(C(=O)N(C)OC)c(F)c5)csc34)CC2)nc1` registered an Activity in test [1] of 81%.
`CON(C)C(=O)c1ccc(-c2csc3c(OC4CCN(C(=O)OC(C)(C)C)CC4)ncnc23)cc1` displayed an EC50 in test [2] of 64 nM. The Activity in test [1] was 100%.
Compound `CONC(=O)c1ccc(-c2csc3c(N(C)C4CCN(C(=O)OC(C)(C)C)CC4)ncnc23)cc1` returned an Activity in test [1] of 82%.
As for `CN(c1ncnc2c(-c3ccc(C(=O)NOCc4ccccc4)cc3)csc12)C1CCN(C(=O)OC(C)(C)C)CC1`, the EC50 in test [2] came to 83 nM. Also, the Activity in test [1] was determined as 81%.
The compound `CCc1cnc(N2CCC(COc3ccc(-c4ccc(C(=O)N(C)OC)cc4)nc3)CC2)nc1` came in with an EC50 in test [2] of 319 nM. Moreover, the Activity in test [1] turned out to be 95%.
The corresponding values for `CON(C)C(=O)c1ccc(-c2ccc(OCC3CCN(C(=O)OC(C)C)CC3)cn2)cc1F` are 92 nM and 96%.
Consider `CCc1cnc(N2CCC(Oc3ncnc4c(-c5ccc(C(=O)N(C)OC)c(F)c5)csc34)CC2)nc1`, for which the EC50 in test [2] was 105 nM. The Activity in test [1] is 100%.
In test [1], `CCONC(=O)c1ccc(-c2csc3c(N(C)C4CCN(C(=O)OC(C)(C)C)CC4)ncnc23)cc1` had an Activity of 73%.
In the case of `CON(C)C(=O)c1ccc(-c2ccc(OCC3CCN(C(=O)OC(C)(C)C)CC3)cn2)cc1`, a half-maximal response in test [2] (EC50) required 171 nM. Moreover, in test [1], the Activity worked out at 106%.
In the same order, the values of `CCc1cnc(N2CCC(Oc3ncnc4c(-c5ccc(C(=O)N(C)OC)cc5)csc34)CC2)nc1` are 199 nM and 82%.
The compound `CN(c1ncnc2c(-c3ccc(C(=O)N4CCCCO4)cc3)csc12)C1CCN(C(=O)OC(C)(C)C)CC1` came in with an Activity in test [1] of 66%.
For the compound `CCc1cnc(N2CCC(COc3ccc(-c4ccc(C(=O)N(C)OC)c(F)c4)nc3)CC2)nc1`, the outcome (in test [3]; in the test on Mus musculus) was Active. Besides, the EC50 in test [2] was found to be 77 nM. This compound also returned an Activity in test [1] of 100%.
Consider `CC(C)(C)OC(=O)N1CCC(COc2ccc(-c3ccc(C(=O)NOCc4ccccc4)cc3)nc2)CC1`, for which the Activity in test [1] stood at 69%.
In test [2], `CON(C)C(=O)c1ccc(-c2ccc(OCC3CCN(C(=O)OC(C)C)CC3)cn2)cc1` yielded an EC50 of 155 nM. For the same compound, the Activity in test [1] is 80%.
As for `CON(C)C(=O)c1ccc(-c2ccc(OCC3CCN(C(=O)OC(C)(C)C)CC3)cn2)cc1F`, the EC50 in test [2] was 73 nM. The Activity in test [1] was 114%.
In test [2], `CON(C)C(=O)c1ccc(-c2csc3c(OC4CCN(C(=O)OC(C)(C)C)CC4)ncnc23)cc1F` showed an EC50 of 57 nM. The Activity in test [1] is 88%.
Compound `CC(C)(C)OC(=O)N1CCC(COc2ccc(-c3ccc(C(=O)N4CCCCO4)cc3)nc2)CC1` displayed an EC50 in test [2] of 321 nM. The compound further showed an Activity in test [1] of 73%.
As to `CC(C)OC(=O)N1CCC(N(C)c2ncnc3c(-c4ccc(C(=O)NOCc5ccccc5)cc4)csc23)CC1`, the Activity in test [1] was found to be 53%.
As to `CON(C)C(=O)c1ccc(-c2csc3c(N(C)C4CCN(C(=O)OC(C)(C)C)CC4)ncnc23)cc1`, in test [2], the response was half-maximal at 98 nM (EC50). In test [1], this compound yielded an Activity of 105%.
